# Test results from patent US20110178396A1, “Nicotinamide Derivatives” (CRC FOR BIOMEDICAL IMAGING DEVELOPMENT LTD., priority 2008, published 2011).
# System: B16F0 melanoma tumour
# Experiment: Biodistribution in B16 melanoma bearing mice
# Type: in vivo, C57BL/6J mice
# Conditions: C57BL/6J mice; for Organ distribution Intestine / Organ distribution Liver / Organ distribution Spleen / Organ distribution Stomach / Organ distribution Thyroid / Organ distribution Tumour: B16F0 tumour, mean ± S.D.; for Organ distribution Intestine / Organ distribution Liver / Organ distribution Spleen / Organ distribution Stomach / Organ distribution Thyroid / Organ distribution Tumour / Uptake Lung / uptake BLOOD / uptake BRAIN / uptake HEART / uptake KIDNEY / uptake LIVER / uptake TUMOUR: n = 5; for tumour standardized uptake value (SUVt) / Uptake Lung / uptake BLOOD / uptake BRAIN / uptake HEART / uptake KIDNEY / uptake LIVER / uptake TUMOUR: B16 tumour; for Uptake Lung / uptake BLOOD / uptake BRAIN / uptake HEART / uptake KIDNEY / uptake LIVER / uptake TUMOUR: mean ± SD
# Method in brief: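 B16F0 tumours in C57BL/6J mice (day 11) and A375 xenografts in BALB/c nude mice (day 25), subcutaneous left flank. Radiotracer given i.v. by tail vein (18F 0.5–1.5 MBq; 123I 0.37–0.74 MBq); n=5 per time point, 15 min–6 h (18F) or 1–72 h (123I). Organs γ-counted as % ID/g.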
smiles,measurement,setting,value
"CCN(CC)CCNC(=O)c1cncc(I)c1 [[^123I]11, N-(2-(diethylamino)ethyl)-5-iodonicotinamide]",Organ distribution Intestine,1 h,15 ± 2 % ID/organ
same,Organ distribution Liver,1 h,1.8 ± 0.3 % ID/organ
same,Organ distribution Spleen,1 h,0.16 ± 0.16 % ID/organ
same,Organ distribution Stomach,1 h,2.0 ± 0.2 % ID/organ
same,Organ distribution Thyroid,1 h,0.37 ± 0.07 % ID/organ
same,Organ distribution Tumour,1 h,1.3 ± 0.3 % ID/organ
same,Organ distribution Intestine,3 h,5 ± 2 % ID/organ
same,Organ distribution Liver,3 h,0.82 ± 0.08 % ID/organ
same,Organ distribution Spleen,3 h,0.06 ± 0.05 % ID/organ
same,Organ distribution Stomach,3 h,1.3 ± 0.3 % ID/organ
same,Organ distribution Thyroid,3 h,1.1 ± 0.3 % ID/organ
same,Organ distribution Tumour,3 h,1.0 ± 0.4 % ID/organ
same,Organ distribution Intestine,6 h,2.8 ± 0.4 % ID/organ
same,Organ distribution Spleen,6 h,0.05 ± 0.04 % ID/organ
same,Organ distribution Stomach,6 h,1.2 ± 0.2 % ID/organ
same,Organ distribution Thyroid,6 h,1.8 ± 1.0 % ID/organ
same,Organ distribution Tumour,6 h,1.1 ± 0.3 % ID/organ
same,Organ distribution Intestine,24 h,0.10 ± 0.02 % ID/organ
same,Organ distribution Liver,24 h,0.12 ± 0.01 % ID/organ
same,Organ distribution Spleen,24 h,0.01 ± 0.03 % ID/organ
same,Organ distribution Stomach,24 h,0.04 ± 0.01 % ID/organ
same,Organ distribution Thyroid,24 h,1.0 ± 0.3 % ID/organ
same,Organ distribution Tumour,24 h,0.7 ± 0.1 % ID/organ
same,Organ distribution Intestine,48 h,0.06 ± 0.01 % ID/organ
same,Organ distribution Liver,48 h,0.06 ± 0.01 % ID/organ
same,Organ distribution Spleen,48 h,0.00 ± 0.00 % ID/organ
same,Organ distribution Stomach,48 h,0.02 ± 0.01 % ID/organ
same,Organ distribution Thyroid,48 h,1.4 ± 0.3 % ID/organ
same,Organ distribution Tumour,48 h,0.7 ± 0.4 % ID/organ
same,Organ distribution Intestine,72 h,0.04 ± 0.01 % ID/organ
same,Organ distribution Liver,72 h,0.04 ± 0.01 % ID/organ
same,Organ distribution Spleen,72 h,0.01 ± 0.01 % ID/organ
same,Organ distribution Stomach,72 h,0.01 ± 0.01 % ID/organ
same,Organ distribution Thyroid,72 h,1.0 ± 0.6 % ID/organ
same,Organ distribution Tumour,72 h,0.3 ± 0.1 % ID/organ
same,tumour standardized uptake value (SUVt),1 h,3.7 ± 1.0
same,Uptake Lung,1 h,1.4 ± 0.2 % ID/g
same,uptake BLOOD,1 h,1.21 ± 0.17 % ID/g
same,uptake BRAIN,1 h,0.14 ± 0.02 % ID/g
same,uptake HEART,1 h,0.8 ± 0.1 % ID/g
same,uptake KIDNEY,1 h,1.8 ± 0.5 % ID/g
same,uptake LIVER,1 h,1.9 ± 0.3 % ID/g
same,uptake TUMOUR,1 h,7.8 ± 1.7 % ID/g
same,tumour standardized uptake value (SUVt),3 h,7.4 ± 1.6
same,Uptake Lung,3 h,0.75 ± 0.07 % ID/g
same,uptake BLOOD,3 h,0.92 ± 0.09 % ID/g
same,uptake BRAIN,3 h,0.07 ± 0.01 % ID/g
same,uptake HEART,3 h,0.4 ± 0.04 % ID/g
same,uptake KIDNEY,3 h,0.8 ± 0.1 % ID/g
same,uptake LIVER,3 h,0.9 ± 0.1 % ID/g
same,uptake TUMOUR,3 h,6.0 ± 0.4 % ID/g
same,tumour standardized uptake value (SUVt),6 h,12 ± 1
same,Uptake Lung,6 h,0.47 ± 0.11 % ID/g
same,uptake BLOOD,6 h,0.58 ± 0.14 % ID/g
same,uptake BRAIN,6 h,0.04 ± 0.01 % ID/g
same,uptake HEART,6 h,0.26 ± 0.06 % ID/g
same,uptake KIDNEY,6 h,0.5 ± 0.1 % ID/g
same,uptake LIVER,6 h,0.6 ± 0.1 % ID/g
same,uptake TUMOUR,6 h,5.9 ± 0.7 % ID/g
same,tumour standardized uptake value (SUVt),24 h,37 ± 9
same,Uptake Lung,24 h,0.03 ± 0.02 % ID/g
same,uptake BLOOD,24 h,0.03 ± 0.01 % ID/g
same,uptake BRAIN,24 h,0.01 % ID/g
same,uptake HEART,24 h,0.04 ± 0.01 % ID/g
same,uptake KIDNEY,24 h,0.03 ± 0.01 % ID/g
same,uptake LIVER,24 h,0.12 ± 0.02 % ID/g
same,uptake TUMOUR,24 h,3.2 ± 0.9 % ID/g
same,tumour standardized uptake value (SUVt),48 h,22 ± 5
same,Uptake Lung,48 h,0.04 ± 0.01 % ID/g
same,uptake BRAIN,48 h,0.01 % ID/g
same,uptake HEART,48 h,0.03 ± 0.01 % ID/g
same,uptake KIDNEY,48 h,0.03 ± 0.01 % ID/g
same,uptake LIVER,48 h,0.08 ± 0.02 % ID/g
same,uptake TUMOUR,48 h,2.2 ± 0.4 % ID/g
same,tumour standardized uptake value (SUVt),72 h,18 ± 12
same,Uptake Lung,72 h,0.04 ± 0.04 % ID/g
same,uptake BLOOD,72 h,0.02 ± 0.01 % ID/g
same,uptake BRAIN,72 h,0.01 % ID/g
same,uptake HEART,72 h,0.06 ± 0.02 % ID/g
same,uptake KIDNEY,72 h,0.02 ± 0.02 % ID/g
same,uptake LIVER,72 h,0.04 ± 0.01 % ID/g
same,uptake TUMOUR,72 h,1.4 ± 0.3 % ID/g
